In one data set the test system is hypoxic-N2a cells. Kind of data set: FasL-induced apoptosis in hypoxic N2a cells, Annexin V-PE staining. Conditions: hypoxic N2a cells treated with FasL, then peptide; for effect on Fas-mediated apoptosis / cell death compared to control: Fig 1B,C, three independent experiments. It is filed as cell-based, mouse. The procedure:
Figure 1 The inhibitory effect of FBP or leptin-PEG-FBP (L-P-F) on FasL-induced apoptosis in hypoxic-N2a. (A) Schematic illustration of the L-P-F peptide synthesis. (B,C) The N2a cells were cultured in a hypoxic condition in the presence of membrane-bound soluble FasL (5 nM) for 6 h, as described in the Methods section. The cells were then treated with 300 μM of the indicated peptides for 6 h and examined for Annexin V-PE staining. (B) Representative histograms illustrate the percentage of apoptosis with the peptide treatments, depicting live cells (in black) and apoptotic cells (in red). (C) Bar graph represents the percentage of Annexin V positive cells with the peptide treatments. Normoxia describes cells cultured in normal oxygen conditions. Hypoxia describes cells cultured in hypoxic conditions. The bar graph indicates the average ± SD of three independent experiments. The data in (C) was analyzed using Mann–Whitney U test (* p < 0.05; ns: not-significant). TEXT PRINTED IN THE PICTURE: (B) Mock: Annexin V: 86.4 | (B) ctrl-FBP: Annexin V: 82.0 | (B) Leptin: Annexin V: 83.5 | (B) FBP: Annexin V: 54.0 | (B) L-P-F: Annexin V: 56.5 DOUBTS OF THE COPYIST ABOUT THIS PICTURE: Panel B: the gate numbers have no unit or measure printed beside them; 'Annexin V' comes from the axis label printed once at the edge of the panel. / Panel B, Mock: this is a control treatment, not a substance; it is included because a gate value is printed with it. / Small print in panel B, so these digits are not certain: Mock 86.4, ctrl-FBP 82.0, Leptin 83.5, FBP 54.0, L-P-F 56.5.
To evaluate the effect of leptin-PEG-FBP on Fas-mediated apoptosis, hypoxic Neuro2a mouse neuroblastoma (N2a) cells were treated with FasL ([…]), followed by a treatment with the peptides indicated in Figure 1B.
Neuro2a mouse neuroblastoma cells (N2a) were obtained from ATCC (Rockville, MD) and cultured in Dulbecco’s modified Eagle’s medium (DMEM, Gibco) containing 10% fetal bovine serum, penicillin (100 IU/mL), and streptomycin (100 μg/mL). To mimic the in vitro ischemia/reperfusion environment, N2a cells were maintained in a hypoxic condition (94% N2, 5% CO2, 1% O2, 37 °C) in oxygen glucose deprivation media (OGD, Life Technologies, Carlsbad, CA, USA) for 24 h. The cells were then reoxygenated in DMEM supplemented with 10% FBS (5% CO2, 20% O2, 37 °C) for another 24 h and cultured in Dulbecco’s modified Eagle’s medium (DMEM) (Gibco) containing high glucose, supplemented with 10% calf serum and 1% penicillin-streptomycin. To analyze the functional effects of leptin-PEG-FBP, normoxia- and hypoxia-induced N2a cells were seeded in a six-well plate at 2 × 10^5/well with serum-free DMEM and treated with leptin-PEG-FBP at 1 mM for 6 h followed by exposure to a soluble Fas ligand (5 nM). […]

The next data set concerns Jurkat cells. Kind of data set: FasL-mediated apoptosis in Jurkat cells, Annexin V staining (effect of PEG size). It is filed as cell-based. Conditions: membrane-bound soluble FasL 20 ng/ml, 3 hr, peptides 300 µM, FasL alone approximately 40% apoptosis, three independent experiments, Fig S1. An excerpt: In a prior study, we observed that the Fas-blocking peptide (FBP) effectively disrupted Fas–FasL interactions, thereby inhibiting Fas-mediated apoptosis both in vitro and in vivo when delivered intranasally. In this study, we explored the impact of FBP through the clinically relevant systemic route of delivery. To conjugate FBP with leptin, a brain-targeting peptide that effectively penetrates the BBB, we employed polyethylene glycol (PEG) as a linker. We initially evaluated the toxicity of PEG of various sizes in Jurkat cells. The treatment of Jurkat cells with membrane-bound FasL induced approximately 40% apoptosis compared to non-FasL (normal) cells. […] Based on our findings, we conjugated PEG-2K to FBP (PEG-FBP) and then linked it with the leptin peptide. […] (Figure S2). The conjugation schematic is illustrated in Figure 1A.
Figure S1. Effect of PEGylation length on apoptosis inhibition by FBP peptides. ( A) Apoptosis in Jurkat cells was assessed 3 hr post- treatment with membrane-bound soluble FasL (20 ng/ml), with and without peptides at a concentration of 300 µM using Annexin V staining. (B-C) Bar graphs illustrating the percentage of cells in early (B) and late (C) apoptosis. The compar ison includes non- treated, ctrl- FBP, FBP, and various PEGylated FBP (1K, 2K, 3.4K, 5K, 10K) after FasL treatment in Jurkat cells. […]

The test system of data set [1] is MCAO rat model. Put plainly: TUNEL assay of brain sections of MCAO rats. Conditions: 48 h post-MCAO. The data set is classed as in vivo. Here is the method: Ischemic stroke conditions in rat MCAO models lead to brain damage primarily through apoptosis. To assess the therapeutic effects of leptin-PEG-FBP on Fas-mediated apoptosis, we administrated 5 mg/kg of FBP systemically at 3 h and 6 h post-MCAO. At 48 h post-MCAO, we conducted necropsy to estimate the protein levels of Fas and cleaved caspase-3 in the brain samples. Ischemic stroke induced an elevated level of Fas and cleaved caspase-3, similar to the PBS-treated MCAO rats. […] Approximately 52% of cells were TUNEL-positive in the PBS-treated group, 55% in the PEG-FBP, and 47% in the leptin-treated group (Figure 5B). […]
Figure 5 Leptin-PEG-FBP attenuates apoptosis in the MCAO rat model. […] (A) Representative Western blots and quantification of protein expression for Fas and cleaved caspase-3 in the brain of […] at 48 h post-MCAO. […] (B) Representative microscopy images of TUNEL-stained brain sections (red) and quantification of TUNEL-positive cells in the ischemic region of MCAO after necropsy. (C) Representative microscopy images of cleaved caspase-3-stained brain sections (green) and quantification of positive cells in the ischemic region of MCAO after necropsy. […] Data represent mean ± SD (n = 3 animals per group) and were analyzed using Mann–Whitney U test. […]

For data set [2], the system named is MCAO rat model. Kind of data set: TTC staining, infarction in MCAO rats. Conditions: 5 mg/kg i.v., 48 h post-MCAO, n = 5, PBS group 37%, Fig 6A. It is filed as in vivo. The procedure: (§1) The induction of apoptosis in the penumbra after MCAO results in brain damage, leading to the formation of infarcts or areas of tissue damage. To examine the impact of leptin-PEG-FBP on brain infraction, we conducted triphenyltetrazolium chloride (TTC) staining at 48 h post-treatment.
(§2) Figure 6 Improvement of MCAO-induced infarction and histopathological changes with leptin-PEG-FBP treatment. MCAO rats were systemically treated with indicated peptides (5 mg/kg, i.v.) at […]. (A) Brain slices stained with TTC after necropsy. Quantitative analysis of infarction is shown on the right. Data represent mean ± SD (n = 5 animals per group). (B) Images of Nissl-stained brain slices (left) and quantitative analysis of infarction volume on the right. (C) Representative images of hematoxylin and eosin (H&E) brain sections from normal or MCAO-subjected animals after treatment. Data were analyzed using Mann–Whitney U test. Data represent the mean ± SD (* […]; ** p < 0.01; ns: not-significant).
Pathology in brain tissues was analyzed by staining 2 mm brain slices in 2% 2,3,5-tryphenyltetrazolium chloride (TTC, Sigma Aldrich, St. Louis, MO, USA) for 15 min at 37 °C. The infarcted volume was calculated after fixation using Image J software version 1.54d, as described.

Data set [3] has as its system MCAO rat model. Kind of data set: Nissl staining, infarction volume in MCAO rats. Conditions: 5 mg/kg i.v., 48 h, PBS group around 45%, Fig 6B. It is filed as in vivo. Here is the method: as §1, §2
Infarcted brain volume was analyzed using Nissl staining. The OCT-embedded brain samples for cryosection were fixed using 4% PFA at room temperature and subjected to 0.1% crystal violet solution following standard protocol. The stained sections were cover-slipped and blindly pictured using full-screening scanner. The infarcted volume was calculated using Image J software version 1.54d.

For data set [4], the system named is MCAO rat model. Put plainly: H&E histology of brain sections of MCAO rats. Conditions: 5 mg/kg i.v., 48 h, Fig 6C. It is filed as in vivo. The procedure:
as §1, §2
Rats were sacrificed and perfused with PBS. Brains were carefully removed, embedded in OCT compound (Sakura Finetek, Alphen aan den Rijn, The Netherlands), rapidly cryopreserved in frigid isopentane chilled with liquid nitrogen, and stored at −80 °C until the subsequent sectioning procedure. […]

For data set [5] the following is noted: rat, in vivo, iv.
Experimental: Figure S2. Leptin peptide-mediated brain delivery in rats. Biodistribution (left panel)
of A647-conjugated peptides delivered intravenous (n=3) in normal rats. Brain, lung,
liver, spleen and kidney were examined 24 hr post- inoculation. Rats were treated with
RV -M AT , the control peptide and the leptin peptide. Cumulative data (right panel)
show relative fluorescence intensities measured in arbitrary pixel values for examined
tissues. The measurements are compared to the n ormal groupand are based on three
(1 picture or pasted object on this page, not shown here)
The conditions of data set [6]: mouse, in vivo, iv, 2.5 mg/kg.
Experimental: To confirm the specificity of leptin-mediated FBP delivery to the brain, we systemically administered Alexa^647-conjugated leptin alone, PEG-FBP, and leptin-PEG-FBP in leptin receptor-deficient db/db mice subjected to photothrombosis (Figure 3A).
Wildtype and leptin receptor-deficient (db/db) mice were subjected to photothrombotic stroke, followed by administration of the indicated peptides (2.5 mg/kg Alexa^647-labelled peptides, i.v.). Organs were collected at 12 h post-delivery and imaged on Kodak imaging station. (A,B) Representative images and quantification of fluorescence intensities after necropsy. Control mice were inoculated with PBS. Fluorescence intensities measured in arbitrary pixel values were normalized to fluorescence intensities in the PBS-treated group. The data represent mean ± SD (n = 5 per group). The data in (B) were analyzed using Mann–Whitney U test (* p < 0.05; ** p < 0.01).
(§3) For bio-distribution studies, Alexa^647-conjugated peptides were intravenously (IV) administered at 2.5 mg/kg. […] Fluorescence was analyzed at designated time points. After 12 h inoculation, fluorescence was measured in the brain, lung, liver, spleen, and kidney using image station (Kodak, Stamford, CT, USA).
For data set [7] the following is noted: rat, in vivo.
Experimental: To explore the feasibility of ischemic-specific FBP delivery, we administered Alexa^647-conjugated peptides to a rat middle cerebral artery occlusion (MCAO) ischemic stroke model. The peptides were delivered via the intravenous route (2.5 mg/kg) and the brain and peripheral organs were examined 24 h post-inoculation. […] Next, we conducted an in-depth analysis to validate the localization through confocal microscopy.
Rats underwent middle cerebral artery occlusion, followed by the administration of the indicated Alexa^647-labelled peptides (2.5 mg/kg, i.v.). Organs were harvested 24 h post-inoculation and imaged on Kodak imaging station. […] Control mice were inoculated with PBS.
Acute cerebral ischemia was produced using a 1 h occlusion of the right middle cerebral artery (MCAO) in Sprague–Dawley rats weighing 280–320 g (Orient Bio, Seoul, Republic of Korea), as previously described [76]. […]
as §3

Consider YCDEHFCY [FBP], for which, in the data set on hypoxic-N2a cells (Fig 1B), the “decrease in Annexin V positivity upon exposure to FasL” value is given as 40%. In the data set with hypoxic-N2a cells, the “effect on Fas-mediated apoptosis / cell death compared to control” value is “significantly reduced cell death”. The “effect on FasL-mediated apoptosis in Jurkat cells” value in the data set on Jurkat cells is “significantly reduced FasL-mediated apoptosis”.

“YCNSTVCY [ctrl-FBP, control FBP peptide YCNSTVCY]”: the “effect on Fas-mediated apoptosis / cell death compared to control” value with hypoxic-N2a cells is recorded as “did not demonstrate a reduction”.

Consider “YQQVLTSLPSQNVLQIANDLENLRDLLHLLGGGC [leptin]”, for which the “effect on Fas-mediated apoptosis / cell death compared to control” value with hypoxic-N2a cells was “did not demonstrate a reduction”. In addition, the “TUNEL-positive cells in the ischemic region” value in the data set on MCAO rat model [1] (5 mg/kg i.v. at 3 h and 6 h post-MCAO, confocal, n = 3, PBS group 52%, Fig 5B) is listed as approximately 47%. In addition, the “change in TUNEL and cleaved caspase-3 positive cells” value in the data set on MCAO rat model [1] (5 mg/kg i.v., Fig 5B,C) was “no significant changes”. For the same sequence, in the data set with MCAO rat model [2], the “infarction volume, TTC staining” value was 32%. Also, in the data set with MCAO rat model [3], the “infarction volume, Nissl staining” value is reported as approximately 45%. Also, the “tissue damage in right hemisphere, H&E staining” value with MCAO rat model [4] is listed as “significant damage to the tissue morphology”. Also, the “delivery to the brain compared to negative control peptide RV-MAT” value in data set [5] is listed as “successful delivery to the brain”. Moreover, the “brain delivery in leptin receptor-deficient db/db mice” value in [6] is “did not bind to the brain”. The “Alexa647-positive cells in brain sections, confocal microscopy” value in [7] is listed as “strong Alexa^647 positive cells”.

Source of the values: article PMC10780202, “Systemic Treatment with Fas-Blocking Peptide Attenuates Apoptosis in Brain Ischemia” (International Journal of Molecular Sciences, 2024).
